Tests used:
Assay type in all cases: cell-based, human
CCRF-CEM (Leukemia) = assay: NCI one dose, CCRF-CEM; conditions: 1.00E-5 Molar one dose
Protocol: (§1) 3.4. Cell Proliferation Assay
(§2) Selected compounds were tested on a panel of 60 human cancer cell lines at the National Cancer Institute (NCI), Germantown, MD, USA. The cytotoxicity studies were conducted using a 48 h exposure protocol using the sulfo-rhodamine B assay.

K-562 leukaemia cells = assay: NCI one dose, K-562; conditions: K-562, 1.00E-5 Molar one dose
Protocol: as §1, §2

[1] = system: EKVX (Non-Small Cell Lung Cancer); assay: NCI one dose, EKVX; conditions: 1.00E-5 Molar one dose
Protocol: as §1, §2

[2] = system: HOP-92 (Non-Small Cell Lung Cancer); assay: NCI one dose, HOP-92; conditions: HOP-92, 1.00E-5 Molar one dose
Protocol: as §1, §2

[3] = system: NCI-H322M (Non-Small Cell Lung Cancer); assay: NCI one dose, NCI-H322M; conditions: 1.00E-5 Molar one dose
Protocol: as §1, §2

[4] = system: NCI-H522 non-small cell lung cancer cells; assay: NCI cell proliferation, NCI-H522; conditions: for inhibition at 10 µM: Homo sapiens, NCI-H522, read-out: % Cancer cell growth Inhibition (NCI-H522); for Growth Percent: NCI-H522, 1.00E-5 Molar one dose
Protocol: as §1, §2

HT29 (Colon Cancer) = assay: NCI one dose, HT29; conditions: HT29, 1.00E-5 Molar one dose
Protocol: as §1, §2

KM12 (Colon Cancer) = assay: NCI one dose, KM12; conditions: KM12, 1.00E-5 Molar one dose
Protocol: as §1, §2

SW-620 (Colon Cancer) = assay: NCI one dose, SW-620; conditions: SW-620, 1.00E-5 Molar one dose
Protocol: as §1, §2

SF-539 (CNS Cancer) = assay: NCI one dose, SF-539; conditions: SF-539, 1.00E-5 Molar one dose
Protocol: as §1, §2

SNB-19 (CNS Cancer) = assay: NCI one dose, SNB-19; conditions: SNB-19, 1.00E-5 Molar one dose
Protocol: as §1, §2

LOX IMVI (Melanoma) = assay: NCI one dose, LOX IMVI; conditions: 1.00E-5 Molar one dose
Protocol: as §1, §2

M14 (Melanoma) = assay: NCI one dose, M14; conditions: M14, 1.00E-5 Molar one dose
Protocol: as §1, §2

SK-MEL-5 (Melanoma) = assay: NCI one dose, SK-MEL-5; conditions: SK-MEL-5, 1.00E-5 Molar one dose
Protocol: as §1, §2

UACC-62 (Melanoma) = assay: NCI one dose, UACC-62; conditions: UACC-62, 1.00E-5 Molar one dose
Protocol: as §1, §2

OVCAR-3 (Ovarian Cancer) = assay: NCI one dose, OVCAR-3; conditions: OVCAR-3, 1.00E-5 Molar one dose
Protocol: as §1, §2

OVCAR-4 (Ovarian Cancer) = assay: NCI one dose, OVCAR-4; conditions: OVCAR-4, 1.00E-5 Molar one dose
Protocol: as §1, §2

OVCAR-5 (Ovarian Cancer) = assay: NCI one dose, OVCAR-5; conditions: OVCAR-5, 1.00E-5 Molar one dose
Protocol: as §1, §2

OVCAR-8 (Ovarian Cancer) = assay: NCI one dose, OVCAR-8; conditions: OVCAR-8, 1.00E-5 Molar one dose
Protocol: as §1, §2

[5] = system: NCI/ADR-RES (Ovarian Cancer); assay: NCI one dose, NCI/ADR-RES; conditions: 1.00E-5 Molar one dose
Protocol: as §1, §2

SK-OV-3 (Ovarian Cancer) = assay: NCI one dose, SK-OV-3; conditions: SK-OV-3, 1.00E-5 Molar one dose
Protocol: as §1, §2

786-0 (Renal Cancer) = assay: NCI one dose, 786-0; conditions: 786-0, 1.00E-5 Molar one dose
Protocol: as §1, §2

CAKI-1 (Renal Cancer) = assay: NCI one dose, CAKI-1; conditions: CAKI-1, 1.00E-5 Molar one dose
Protocol: as §1, §2

RXF 393 (Renal Cancer) = assay: NCI one dose, RXF 393; conditions: RXF 393, 1.00E-5 Molar one dose
Protocol: as §1, §2

TK-10 (Renal Cancer) = assay: NCI one dose, TK-10; conditions: TK-10, 1.00E-5 Molar one dose
Protocol: as §1, §2

UO-31 renal cancer cells = assay: NCI one dose, UO-31; conditions: UO-31, 1.00E-5 Molar one dose
Protocol: as §1, §2

[6] = system: MDA-MB-231/ATCC (Breast Cancer); assay: NCI one dose, MDA-MB-231/ATCC; conditions: 1.00E-5 Molar one dose
Protocol: as §1, §2

HS 578T (Breast Cancer) = assay: NCI one dose, HS 578T; conditions: 1.00E-5 Molar one dose
Protocol: as §1, §2

BT-549 (Breast Cancer) = assay: NCI one dose, BT-549; conditions: BT-549, 1.00E-5 Molar one dose
Protocol: as §1, §2

SMILES | Growth Percent (CCRF-CEM (Leukemia)) [%] | Growth Percent (K-562 leukaemia cells) [%] | Growth Percent [1] [%] | Growth Percent [2] [%] | Growth Percent [3] [%] | inhibition at 10 µM [4] [%] | Growth Percent [4] [%] | Growth Percent (HT29 (Colon Cancer)) [%] | Growth Percent (KM12 (Colon Cancer)) [%] | Growth Percent (SW-620 (Colon Cancer)) [%] | Growth Percent (SF-539 (CNS Cancer)) [%] | Growth Percent (SNB-19 (CNS Cancer)) [%] | Growth Percent (LOX IMVI (Melanoma)) [%] | Growth Percent (M14 (Melanoma)) [%] | Growth Percent (SK-MEL-5 (Melanoma)) [%] | Growth Percent (UACC-62 (Melanoma)) [%] | Growth Percent (OVCAR-3 (Ovarian Cancer)) [%] | Growth Percent (OVCAR-4 (Ovarian Cancer)) [%] | Growth Percent (OVCAR-5 (Ovarian Cancer)) [%] | Growth Percent (OVCAR-8 (Ovarian Cancer)) [%] | further results
O=C(NCc1ccccc1C(F)(F)F)[C@@H]1CS[C@H]2c3ccccc3C(=O)N12 [4aC] | 93.25 | 94.12 | 99.35 | 77.56 | 103.27 | 22 | 78.18 | 91.65 | 102.90 | 104.34 | 95.88 | 95.80 | 102.58 | 95.62 | 107.31 | 88.82 | 106.48 | 105.74 | 83.18 | 94.34 | Growth Percent [5]: 99.79%; Growth Percent (SK-OV-3 (Ovarian Cancer)): 85.91%; Growth Percent (786-0 (Renal Cancer)): 86.33%; Growth Percent (CAKI-1 (Renal Cancer)): 97.48%; Growth Percent (RXF 393 (Renal Cancer)): 115.46%; Growth Percent (TK-10 (Renal Cancer)): 108.86%; Growth Percent (UO-31 renal cancer cells): 74.84%; Growth Percent [6]: 91.35%; Growth Percent (HS 578T (Breast Cancer)): 104.53%; Growth Percent (BT-549 (Breast Cancer)): 96.07%
O=C(NCc1cccc(C(F)(F)F)c1)[C@@H]1CS[C@H]2c3ccccc3C(=O)N12 [4aD] | 99.20 | 89.33 | 103.29 | 79.43 | 93.97 | 25 | 74.73 | 91.88 | 98.82 | 107.41 | 101.49 | 95.15 | 100.26 | 97.50 | 110.95 | 89.84 | 104.21 | 105.79 | 97.67 | 94.59 | Growth Percent [5]: 92.62%; Growth Percent (SK-OV-3 (Ovarian Cancer)): 88.01%; Growth Percent (786-0 (Renal Cancer)): 88.74%; Growth Percent (CAKI-1 (Renal Cancer)): 97.61%; Growth Percent (RXF 393 (Renal Cancer)): 114.41%; Growth Percent (TK-10 (Renal Cancer)): 117.52%; Growth Percent (UO-31 renal cancer cells): 78.58%; Growth Percent [6]: 97.44%; Growth Percent (HS 578T (Breast Cancer)): 110.09%; Growth Percent (BT-549 (Breast Cancer)): 92.70%
O=C(NCc1ccc(Cl)cc1Cl)[C@@H]1CS[C@H]2c3ccccc3C(=O)N12 [4aH] | 92.66 | 91.56 | 100.24 | 75.56 | 91.63 | 27 | 72.97 | 96.30 | 99.99 | 105.59 | 106.56 | 97.06 | 100.51 | 99.48 | 109.91 | 85.33 | 107.79 | 106.54 | 104.58 | 97.57 | Growth Percent [5]: 92.00%; Growth Percent (SK-OV-3 (Ovarian Cancer)): 103.37%; Growth Percent (786-0 (Renal Cancer)): 89.83%; Growth Percent (CAKI-1 (Renal Cancer)): 101.46%; Growth Percent (RXF 393 (Renal Cancer)): 105.25%; Growth Percent (TK-10 (Renal Cancer)): 103.48%; Growth Percent (UO-31 renal cancer cells): 83.58%; Growth Percent [6]: 110.76%; Growth Percent (HS 578T (Breast Cancer)): 113.78%; Growth Percent (BT-549 (Breast Cancer)): 97.76%
O=C(NCc1ccccc1)[C@@H]1CS[C@H]2c3ccccc3C(=O)N12 [4aA] | 96.52 | 101.44 | 105.39 | 87.72 | 102.34 | 13 | 79.32 | 99.44 | 110.51 | 102.46 | 102.43 | 96.70 | 97.27 | 94.47 | 114.63 | 97.72 | 112.79 | 111.39 | 91.72 | 101.18 | Growth Percent [5]: 99.86%; Growth Percent (SK-OV-3 (Ovarian Cancer)): 102.04%; Growth Percent (786-0 (Renal Cancer)): 85.46%; Growth Percent (CAKI-1 (Renal Cancer)): 94.90%; Growth Percent (RXF 393 (Renal Cancer)): 114.31%; Growth Percent (TK-10 (Renal Cancer)): 96.56%; Growth Percent (UO-31 renal cancer cells): 91.66%; Growth Percent [6]: 100.79%; Growth Percent (HS 578T (Breast Cancer)): 107.68%; Growth Percent (BT-549 (Breast Cancer)): 93.57%

— paper PMC11855478, “Bicyclic N,S-Acetals Containing Fused Cysteine-Amide System as New Heterocyclic Class Targeting Human Farnesyltransferase (FTase-h)” (International Journal of Molecular Sciences, 2025)
